Measurements reported in patent publication US20230218631A1 (priority 2020, published 2023).

System: EHMT2/G9A, H3K9me2
[1] = 4-week CIE vs Air, same animals, FIG. 1C

Compound: CCO [ethanol]
- EHMT2/G9A in dorsal striatum [1]: no changes
- H3K9me2 in dorsal striatum [1]: no changes
- reduction of H3K9me2 levels in NAc (4-week CIE vs Air, FIG. 1B): ~40%
- total histone H3 protein in NAc (4-week CIE vs Air, FIG. 1B): no changes
- reduction in NAc EHMT2/G9A protein levels (4 weeks CIE vs Air, immunoblot, FIG. 1B): > 30%
